Results on 6 compounds are retold here after US20130137856A1, “PROTEIN BINDING DOMAINS STABILIZING FUNCTIONAL CONFORMATIONAL STATES OF GPCRS AND USES THEREOF” (priority 2010, published 2013).

For experiment [1], the target named is T1, β2AR (Homo sapiens, UniProt P07550). Put plainly: Competition radioligand binding on commercial insect cell membranes with full-length human β2AR, Nb80 versus irrelevant Nb.
Experiment [2] addresses T1, β2AR. Put plainly: [3H]-DHA saturation binding on β2AR reconstituted in HDL particles. The conditions noted are these: read-out: [3H]-DHA saturation binding Kd ± S.E. Further details: recombinant β2AR truncated at Gly365 (β2AR-365); made in house; host or cells: Sf9 insect cells (membranes). The protocol: (§1) The effect of Nb80 and Gs on the receptors affinity for agonists was compared in competition binding experiments. The β2AR and β2AR-[…] (both […]) purified as previously described (Rosenbaum et al. 2007; […] GTPγS was used at 10 μM. […] Bound ^3H-DHA was separated from unbound on a Brandel harvester by passing over a Whatman GF/B filter (presoaked in TBS with 0.3% polyethylenimine) and washed in cold TBS. Radioligand binding was measured in a Beckman LS6000 scintillation counter. Ligand binding affinity (Kd) of DHA was determined from saturation binding curves using GraphPad Prism software.

Experiment [3] addresses T2, β2AR-T4L (Homo sapiens, UniProt P07550, DEL231-262, form not given).
T2 construct: The β2AR and β2AR-T4L (both truncated at position 365) purified as previously described (Rosenbaum et al. 2007); fused on or other part: T4 lysozyme (in the cited construct residues 2-161, C54T/C97A) inserted in place of the third intracellular loop as a crystallisation aid
The experiment in a line: [3H]-DHA saturation binding on β2AR-T4L reconstituted in HDL particles. Particulars: read-out: [3H]-DHA saturation binding Kd ± S.E. The protocol: as §1

The mark [4] stands for this setting: 500 nM Nb80 or irrelevant Nb, 2 nM 3H-DHA radioligand.

Counter-ions that a name gives are not always drawn. Like-named read-outs stand apart in the source and are kept apart here.

As to `CCC(NC(C)C)C(O)c1ccc(O)c2[nH]c(=O)ccc12` (stereo not shown) [procaterol, procaterol hydrochloride], the “Potency shift (ratio of IC50 with irrelevant Nb to IC50 with Nb80)” value in experiment [1] (setting [4]) turned out to be 2.3.
Turning to `CC(NCCc1ccc(O)cc1)C(O)c1ccc(O)cc1` (stereo not shown) [ritodrine, ritodrine hydrochloride], in experiment [1] (setting [4]), the “Potency shift (ratio of IC50 with irrelevant Nb to IC50 with Nb80)” value turned out to be 2.7.
Regarding `CC(CCc1ccc(O)cc1)NCCc1ccc(O)c(O)c1` (stereo not shown) [dobutamine, dobutamine hydrochloride], the “Potency shift (ratio of IC50 with irrelevant Nb to IC50 with Nb80)” value in experiment [1] (setting [4]) came out at 2.3.
Regarding `CCCc1ccccc1OCC(O)CNC(C)C` (stereo not shown) [[^3H]-DNA, [^3H]-dihydroalprenolol], the Kd is 0.55 ± 0.09 nM in experiment [2] and 0.42 ± 0.01 nM in experiment [3].
Regarding metaproterenol hemisulfate salt, the “Potency shift (ratio of IC50 with irrelevant Nb to IC50 with Nb80)” value in experiment [1] turned out to be 2.9.
In the case of `CC(Cc1ccc(O)cc1)NCC(O)c1cc(O)cc(O)c1` (stereo not shown) [fenoterol, fenoterol hydrobromide], the “Potency shift (ratio of IC50 with irrelevant Nb to IC50 with Nb80)” value in experiment [1] (setting [4]) is on record as 3.7.
